Laboratory results reported in patent US20190010167A1, “INHIBITORS OF THE MENIN-MLL INTERACTION” (Vitae Pharmaceuticals, Inc., priority 2015, published 2019).
pIC50: −log10 of the molar value. One block for each compound: values may come before it.

Target: T1, wild-type menin / MLL-AF9 fusion protein (Homo sapiens, UniProt O00255)
T1 construct: made in house; host or cells: E. coli (menin); HEK293 cleared lysate (MLL-AF9-FLAG)
T1 sequence (O00255 1-610): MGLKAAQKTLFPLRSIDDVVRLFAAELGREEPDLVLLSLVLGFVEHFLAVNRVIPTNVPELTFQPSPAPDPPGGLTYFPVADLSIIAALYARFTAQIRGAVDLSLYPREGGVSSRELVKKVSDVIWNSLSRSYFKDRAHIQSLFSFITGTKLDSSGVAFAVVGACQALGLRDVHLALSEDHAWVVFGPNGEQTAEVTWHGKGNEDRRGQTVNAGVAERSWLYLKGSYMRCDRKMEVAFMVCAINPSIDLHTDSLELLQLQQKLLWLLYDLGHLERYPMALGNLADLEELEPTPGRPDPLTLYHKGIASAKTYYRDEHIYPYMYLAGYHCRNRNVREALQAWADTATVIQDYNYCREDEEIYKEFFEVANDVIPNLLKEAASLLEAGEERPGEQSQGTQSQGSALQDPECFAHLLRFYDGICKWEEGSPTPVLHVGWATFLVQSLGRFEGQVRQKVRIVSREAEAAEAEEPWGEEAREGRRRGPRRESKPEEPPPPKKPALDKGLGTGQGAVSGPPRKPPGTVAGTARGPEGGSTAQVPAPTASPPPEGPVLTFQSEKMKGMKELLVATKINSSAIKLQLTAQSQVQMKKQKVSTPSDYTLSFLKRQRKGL
Assay: AlphaLISA menin/MLL binding assay, wild-type menin (Assay 1)
Conditions: biotinylated wild-type menin 5 nM, MLL-AF9-FLAG lysate
Procedure: Potencies of inhibitor compounds against menin/MLL binding were assessed by AlphaLISA assay using biotinylated (1) wild-type menin or (2) mutated menin (described in Nature (2012) Vol. 482, pp. 542-548) and MLL-AF9 fusion protein bearing a FLAG epitope at its C-terminus. Menin proteins were expressed in E. coli and covalently modified with biotin using EZ-Link™ Sulfo-NHS-Biotin (ThermoFisher Cat. No. 21217) according to manufacturer's protocol. MLL1-1,396 fused to AF91-92 and the C-terminal FLAG peptide was expressed in HEK293 cells and used as a lysate cleared at 21,000×g for 10 min.
Compounds (2 μL of solutions in DMSO) were dispensed in white 96-well half-area plates (Corning Cat. No. 3693) and incubated for 30 min at RT with 5 nM biotinylated menin and appropriate amount of MLL-AF9-FLAG lysate in 40 μL of 50 mM Tris-HCl buffer pH 7.4 containing 5% (v/v) DMSO, 50 mM NaCl, 0.01% (w/v) bovine serum albumin (BSA) and 1 mM DTT. To this incubation mixture, 40 μl of AlphaLISA anti-FLAG acceptor (PerkinElmer Cat. No. AL112C) and streptavidin donor (PerkinElmer Cat. No. 6760002) beads (10 μg/mL each) was added and incubation continued at RT for 60 min. Alpha (amplified luminescent proximity homogeneous assay) signal was measured on an Envision multi-label plate reader at the end of the incubation. All steps were conducted under dim fluorescent light.
These percent inhibition values were regressed against compound concentrations in the assay using four parameter logit non-linear curve fitting (XLFit, IDBS). The IC50 values were derived from the curve fitting as inflection points on the dose-response curves and are set out in Table 1 below.

Structure (SMILES): CC(C)(O)CN1CC2(CCN(c3ncnc4sc(CC(F)(F)F)cc34)CC2)C1 [Example 15, 2-methyl-1-(7-(6-(2,2,2-trifluoroethyl)thieno[2,3-d]pyrimidin-4-yl)-2,7-diazaspiro[3.5]nonan-2-yl)propan-2-ol]
pIC50: ≤ 6.00

Structure (SMILES): CC(=O)Nc1ccc(CN2CCC3(CC2)CN(c2ncnc4sc(CC(F)(F)F)cc24)C3)cc1 [Example 103, N-(4-((2-(6-(2,2,2-trifluoroethyl)thieno[2,3-d]pyrimidin-4-yl)-2,7-diazaspiro[3.5]nonan-7-yl)methyl)phenyl)acetamide]
pIC50: 6.00 to 7.00

Structure (SMILES): Cc1c(CN2CCC3(CC2)CCN(c2ncnc4sc(CC(F)(F)F)cc24)C3)ccc2[nH]c(C#N)cc12 [Example 117, 4-methyl-5-((2-(6-(2,2,2-trifluoroethyl)thieno[2,3-d]pyrimidin-4-yl)-2,8-diazaspiro[4.5]decan-8-yl)methyl)-1H-indole-2-carbonitrile]
pIC50: ≤ 6.00

Structure (SMILES): FC(F)(F)Cc1cc2c(N3CCC4(CCN(CC5CCOCC5)CC4)C3)ncnc2s1 [Example 115, 4-(8-((tetrahydro-2H-pyran-4-yl)methyl)-2,8-diazaspiro[4.5]decan-2-yl)-6-(2,2,2-trifluoroethyl)thieno[2,3-d]pyrimidine]
pIC50: 6.00 to 7.00

Structure (SMILES): FC(F)(F)Cc1cc2c(N3CC4(CCN(C[C@H]5CC[C@H](C(F)(F)F)CC5)CC4)C3)ncnc2s1 [Example 102, 6-(2,2,2-trifluoroethyl)-4-(7-(((1r,4r)-4-(trifluoromethyl)cyclohexyl)methyl)-2,7-diazaspiro[3.5]nonan-2-yl)thieno[2,3-d]pyrimidine]
pIC50: 6.00 to 7.00

Structure (SMILES): CC(=O)N[C@H]1CC[C@H](CN2CCC3(CC2)CN(c2ncnc4sc(CC(F)(F)F)cc24)C3)CC1 [Example 105, N-((1r,4r)-4-((2-(6-(2,2,2-trifluoroethyl)thieno[2,3-d]pyrimidin-4-yl)-2,7-diazaspiro[3.5]nonan-7-yl)methyl)cyclohexyl)acetamide]
pIC50: 6.00 to 7.00

Structure (SMILES): O=C(C1CCCCN1)N1CC2(C1)CN(c1ncnc3sc(CC(F)(F)F)cc13)C2 (centres unmarked) [Example 79, piperidin-2-yl(6-(6-(2,2,2-trifluoroethyl)thieno[2,3-d]pyrimidin-4-yl)-2,6-diazaspiro[3.3]heptan-2-yl)methanone]
pIC50: 6.00 to 7.00

Structure (SMILES): FC(F)(F)Cc1cc2c(N3CCC4(CCN(Cc5ccccc5)CC4)C3)ncnc2s1 [Example 116, 4-(8-benzyl-2,8-diazaspiro[4.5]decan-2-yl)-6-(2,2,2-trifluoroethyl)thieno[2,3-d]pyrimidine]
pIC50: ≤ 6.00

Structure (SMILES): CC(C)CN1CCC2(CC1)CN(c1ncnc3sc(CC(F)(F)F)cc13)C2 [Example 101, 4-(7-isobutyl-2,7-diazaspiro[3.5]nonan-2-yl)-6-(2,2,2-trifluoroethyl)thieno[2,3-d]pyrimidine]
pIC50: 6.00 to 7.00

Structure (SMILES): CCC(C)CN1CCC2(CC1)CCN(c1ncnc3sc(CC(F)(F)F)cc13)C2 (centres unmarked) [Example 114, 4-(8-(2-methylbutyl)-2,8-diazaspiro[4.5]decan-2-yl)-6-(2,2,2-trifluoroethyl)thieno[2,3-d]pyrimidine]
pIC50: 6.00 to 7.00

Structure (SMILES): Cc1c(CN2CC[C@@]3(CCN(c4ccnc5ccc(CC(F)(F)F)cc45)C3)C2)ccc2[nH]c(C#N)cc12 (single isomer, unassigned) [Example 86b, 4-methyl-5-((7-(6-(2,2,2-trifluoroethyl)quinolin-4-yl)-2,7-diazaspiro[4.4]nonan-2-yl)methyl)-1H-indole-2-carbonitrile]
pIC50: 6.00 to 7.00

Structure (SMILES): FC(F)(F)Cc1ccc2ncnc(N3CC4(CN(CC5CCOCC5)C4)C3)c2c1 [Example 91, 4-(6-((tetrahydro-2H-pyran-4-yl)methyl)-2,6-diazaspiro[3.3]heptan-2-yl)-6-(2,2,2-trifluoroethyl)quinazoline]
pIC50: ≤ 6.00

Structure (SMILES): O=C([C@@H]1CCCN1)N1CCC2(CCN(c3ncnc4sc(CC(F)(F)F)cc34)C2)C1 (some centres unmarked) [Example 57, 4-(7-prolyl-2,7-diazaspiro[4.4]nonan-2-yl)-6-(2,2,2-trifluoroethyl)thieno[2,3-d]pyrimidine]
pIC50: 6.00 to 7.00

Structure (SMILES): FC(F)(F)Cc1cc2c(N3CCC4(CCN(CC5CCC(F)(F)CC5)C4)C3)ncnc2s1 (centres unmarked) [Example 32, 4-(7-((4,4-difluorocyclohexyl)methyl)-2,7-diazaspiro[4.4]nonan-2-yl)-6-(2,2,2-trifluoroethyl)thieno[2,3-d]pyrimidine]
pIC50: 6.00 to 7.00

Structure (SMILES): O=C1CC2(CCN(Cc3ccc4[nH]c(=O)[nH]c4c3)C2)CN1c1ncnc2sc(CC(F)(F)F)cc12 (centres unmarked) [Example 118, 7-((2-oxo-2,3-dihydro-1H-benzoldlimidazol-5-yl)methyl)-2-(6-(2,2,2-trifluoroethyl)thieno[2,3-d]pyrimidin-4-yl)-2,7-diazaspiro[4.4]nonan-3-one]
pIC50: 6.00 to 7.00

Structure (SMILES): Cc1c(CN2CC3(CCN(c4ncnc5sc(CC(F)(F)F)cc45)CC3)C2)ccc2[nH]c(C#N)cc12 [Example 21, 4-methyl-5-((7-(6-(2,2,2-trifluoroethyl)thieno[2,3-d]pyrimidin-4-yl)-2,7-diazaspiro[3.5]nonan-2-yl)methyl)-1H-indole-2-carbonitrile]
pIC50: 6.00 to 7.00

Structure (SMILES): CCC(C)CN1CCC2(CC1)CN(c1ncnc3sc(CC(F)(F)F)cc13)C2 (centres unmarked) [Example 100, 4-(7-(2-methylbutyl)-2,7-diazaspiro[3.5]nonan-2-yl)-6-(2,2,2-trifluoroethyl)thieno[2,3-d]pyrimidine]
pIC50: 6.00 to 7.00

Structure (SMILES): CC(C)(N)CC(=O)N1CC2(CCN(c3ncnc4sc(CC(F)(F)F)cc34)CC2)C1 [Example 17, 3-amino-3-methyl-1-(7-(6-(2,2,2-trifluoroethyl)thieno[2,3-d]pyrimidin-4-yl)-2,7-diazaspiro[3.5]nonan-2-yl)butan-1-one]
pIC50: ≤ 6.00

Other lines, results leading:

pIC50: > 7.00
Structure (SMILES): COC(=O)Nc1cccc(CN2CCC3(CCN(c4ncnc5sc(CC(F)(F)F)cc45)C3)C2)c1 (centres unmarked) [Example 53, methyl (3-((7-(6-(2,2,2-trifluoroethyl)thieno[2,3-d]pyrimidin-4-yl)-2,7-diazaspiro[4.4]nonan-2-yl)methyl)phenyl)carbamate]

pIC50: 6.00 to 7.00
Structure (SMILES): FC(F)(F)Cc1cc2c(N3CCC4(CCN(CC5CCOC5)C4)C3)ncnc2s1 (centres unmarked) [Example 31, 4-(7-((Tetrahydrofuran-3-yl)methyl)-2,7-diazaspiro[4.4]nonan-2-yl)-6-(2,2,2-trifluoroethyl)thieno[2,3-d]pyrimidine]

pIC50: 6.00 to 7.00
Structure (SMILES): FC(F)(F)Cc1cc2c(N3CC4(CN(CC5CCC(F)(F)CC5)C4)C3)ncnc2s1 [Example 70, 4-(6-((4,4-difluorocyclohexyl)methyl)-2,6-diazaspiro[3.3]heptan-2-yl)-6-(2,2,2-trifluoroethyl)thieno[2,3-d]pyrimidine]

pIC50: 6.00 to 7.00
Structure (SMILES): O=C(C1CCCNC1)N1CC2(C1)CN(c1ncnc3sc(CC(F)(F)F)cc13)C2 (centres unmarked) [Example 78, piperidin-3-yl(6-(6-(2,2,2-trifluoroethyl)thieno[2,3-d]pyrimidin-4-yl)-2,6-diazaspiro[3.3]heptan-2-yl)methanone]

pIC50: 6.00 to 7.00
Structure (SMILES): O=C(C1CCCCN1)N1CCC2(CCN(c3ncnc4sc(CC(F)(F)F)cc34)C2)C1 (centres unmarked) [Example 56, piperidin-2-yl(7-(6-(2,2,2-trifluoroethyl)thieno[2,3-d]pyrimidin-4-yl)-2,7-diazaspiro[4.4]nonan-2-yl)methanone]

pIC50: 6.00 to 7.00
Structure (SMILES): CC1(C)CCC(CN2CC3(C2)CN(c2ncnc4sc(CC(F)(F)F)cc24)C3)CC1 [Example 64, 4-(6-((4,4-dimethylcyclohexyl)methyl)-2,6-diazaspiro[3.3]heptan-2-yl)-6-(2,2,2-trifluoroethyl)thieno[2,3-d]pyrimidine]

pIC50: 6.00 to 7.00
Structure (SMILES): O=S(=O)(N[C@H]1CC[C@H](CN2CC3(C2)CN(c2ncnc4sc(CC(F)(F)F)cc24)C3)CC1)C1CC1 [Example 72, N-((1r,4r)-4-((6-(6-(2,2,2-trifluoroethyl)thieno[2,3-d]pyrimidin-4-yl)-2,6-diazaspiro[3.3]heptan-2-yl)methyl)cyclohexyl)cyclopropanesulfonamide]

pIC50: 6.00 to 7.00
Structure (SMILES): O=S1(=O)CCC(N2CCC3(CC2)CN(c2ncnc4sc(CC(F)(F)F)cc24)C3)CC1 [Example 104, 4-(2-(6-(2,2,2-trifluoroethyl)thieno[2,3-d]pyrimidin-4-yl)-2,7-diazaspiro[3.5]nonan-7-yl)tetrahydro-2H-thiopyran 1,1-dioxide]
